Laboratory results: patent EP0306300B1, “Pyrrolo(1,2-a)imidazole and imidazo(1,2-a)pyridine derivatives and their use as 5-lipoxygenase pathway inhibitors” (SMITHKLINE BEECHAM CORPORATION, priority 1987, dated 1989)

What was measured:
[1] = system: arachidonic acid-induced edema in mice; experiment: Arachidonic acid-induced mouse ear inflammation (ear swelling); type: in vivo, male Balb/c mice; conditions: mouse, po; read-out: AAEE(MOUSE ED50 mg/kg (po))
Protocol: In the tests used to determine activity as 5-lipoxygenase pathway inhibitors, male Balb/c mice (20-28 g), were used. All mice were obtained from Charles River Breeding Laboratories, Kingston, N.Y. Within a single experiment, mice were age matched.
Reagents were employed as follows: Compounds of Formula (I) were each used as the free base. The compounds were homogenized in 0.5% tragacanth. Compounds were administered by […] at the indicated dose in a final volume of 10 ml/kg.
Arachidonic acid in acetone (2 mg/20 »l) was applied to the inner surface of the left ear. The thickness of both ears was then measured with a dial micrometer one hour after treatment, and the data were expressed as the change in thickness (10⁻³ cm) between treated and untreated ears.
Test compounds were given orally in acid/saline at the times indicated in the text prior to the topical application of arachidonic acid.
Dermatol., 82, 367-371 (1984)].

cynomolgus monkeys [2] = experiment: CNS activity / oral toxicity in cynomolgus monkeys; type: in vivo
cynomolgus monkeys [3] = experiment: CNS activity / oral toxicity in cynomolgus monkeys; conditions: cynomolgus monkey, in vivo
Protocol: Additional monkeys tolerated repeated doses of 45 mg/kg or 30 mg/kg and one animal tolerated an escalating dose schedule of 30-90-120 mg/kg.
The two monkeys administered 400 mg/kg were repeatedly administered this dose for 7 consecutive days; each animal experienced emesis within 1 to 5 hours of dosing after the 1st, 3rd and 4th doses, whereas only the female experienced emesis after the 5th, 6th and 7th doses. A complete necropsy, serum clinical chemistry, hematology and histological examination was completed on both monkeys.

[4] = Log D determination by high pressure liquid chromatography; type: physicochemical; conditions: hplc ods, mobile phase MeOH:H2O, pH 7.4, read-out: (Log D) (Lipophilicity)
Protocol: The procedure used to determine the log D's listed on Table VI was as follows. A 20 »l sample was injected into a Shandon Hypersil ODS, 5» (100 mm x 4.6 mm ID) column and was eluted using a mobile phase of […] MeOH:H₂O (The aqueous portion was .01 M in KH₂PO₄ and adjusted to pH 7.4 with KOH after mixing the MeOH), at a flow rate of 2 ml per minute. Eluting peaks were detected by UV absorbance at […]. All samples were made up at 0.1 mg/ml. (Retentions were identical at 0.01 mg/ml.)
The data was analyzed by determining the regression line corresponding to the log k′ vs. literature log P of the reference standards.
The reference standards and their literature log P's included NaNO₂, 0.0; acetanalide, 1.16; acetophenone, 1.66; anisole, 2.08; chlorobenzene, 2.84; benzophenone, 3.18; anthracene, 4.45; and pentachlorobenzene, 5.12.

[5] = Cytochrome P-450 inhibition (ethoxycoumarin-O-deethylase activity, phenobarbital-induced microsomes); conditions: rat
[6] = cynomolgus monkey, in vivo, po, 60 mg/kg

| Compound | ED50 [1] | time of death after dosing (cynomolgus monkeys [2]; cynomolgus monkey, in vivo, 90 mg/kg) | clinical effects (cynomolgus monkeys [2]; oral 90 mg/kg/day, two consecutive days, 1 female, 1 male, 90 mg/kg/day) | Adverse CNS activity (cynomolgus monkeys [3]) | chromatographic logD [4] | IC50 ([5]; liver microsomes) | IC50 ([5]; microsomes) | clinical effects (cynomolgus monkeys [2]; [6]) | time of death after dosing (cynomolgus monkeys [2]; [6]) | clinical effects (cynomolgus monkeys [2]; cynomolgus monkey, in vivo, po, 90 mg/kg) | clinical effects (cynomolgus monkeys [2]; single oral dose of 90 mg/kg, 1 female, 1 male, 90 mg/kg) |
| --- | --- | --- | --- | --- | --- | --- | --- | --- | --- | --- | --- |
| Fc1ccc(-c2nc3n(c2-c2ccncc2)CCS3)cc1 [Compound A, 5-(4-pyridyl)-6-(4-fluorophenyl)-2,3-dihydroimidazo[2,1-b]thiazole] | 27 mg/kg | 1 to 5 h | caused convulsions and death | +++ | 2.19 | 600 nM | 900 nM | – | – | – | – |
| COc1ccc(-c2nc3n(c2-c2ccncc2)CCC3)cc1 [Compound C, 2-(4-methoxyphenyl)-3-(4-pyridyl)-6,7-dihydro-[5H]-pyrrolo[1,2-a]imidazole] | 28 mg/kg | – | – | +++ | 2.14 | 21400 nM | – | sedation, loss of consciousness and death of one (male) | ≤ 1 h | death of both animals | caused convulsions and death |
